Experimental data as given in ChEMBL document CHEMBL1201862, “PubChem BioAssay data set” (2004).
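A five-concentration, 48-hour dose response in 96-well plates underlies each endpoint, interpolated linearly between surrounding concentrations. GI50 marks 50% less growth.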 The source made the active and inactive calls. Cut-off read from the data, not from the text of the source: active = GI50 up to about 1.1 µM and inactive = higher. Where a SMILES comes first, the peptide text is derived from it.

Tests used:
Assay in all cases: NCI anticancer screen, dose series, 48 h
SK-MEL-5 = system: SK-MEL-5
HT-29 = system: HT-29
KM12 = system: KM12
UACC-257 = system: UACC-257
COLO 205 = system: COLO 205
HCT-116 = system: HCT-116
SK-MEL-2 = system: SK-MEL-2
OVCAR-5 = system: OVCAR-5
M14 = system: M14
A549 = system: A549
NCI-H522 = system: NCI-H522
Malme-3M = system: Malme-3M
HL-60 = system: HL-60
CAKI-1 = system: CAKI-1
SNB-75 = system: SNB-75
SN12C = system: SN12C
MOLT-4 = system: MOLT-4
TK-10 = system: TK-10
HCC 2998 = system: HCC 2998

Measured: GI50

O=C(c1cccs1)N(C(=S)N1CCN(c2ccccn2)CC1)c1ccccc1
inactive: SK-MEL-5 41.6 µM | HT-29 > 100 µM | KM12 > 100 µM | UACC-257 83.2 µM | COLO 205 > 100 µM | HCT-116 56.2 µM | SK-MEL-2 57.4 µM | OVCAR-5 > 100 µM | M14 76.7 µM | A549 > 100 µM | NCI-H522 36.2 µM | Malme-3M > 100 µM | HL-60 > 100 µM | CAKI-1 76 µM | SNB-75 > 100 µM | SN12C > 100 µM | MOLT-4 48.4 µM | TK-10 > 100 µM

O=C(Nc1cc(Cl)ccc1Cl)c1cc2cccc(Cl)c2oc1=O
inactive: SK-MEL-5 > 100 µM | HT-29 > 100 µM | KM12 > 100 µM | UACC-257 61.2 µM | COLO 205 > 100 µM | HCT-116 > 100 µM | M14 > 100 µM | A549 > 100 µM | NCI-H522 > 100 µM | Malme-3M > 100 µM | HL-60 > 100 µM | SNB-75 37.1 µM | SN12C > 100 µM | MOLT-4 > 100 µM | TK-10 > 100 µM

c1ccc2c(c1)CCc1cc3cc4c(nc3nc1-2)-c1ccccc1CC4
inactive: HT-29 > 10 µM | KM12 > 100 µM | HCC 2998 > 100 µM | UACC-257 > 100 µM | COLO 205 > 100 µM | HCT-116 > 100 µM | M14 > 100 µM | A549 > 100 µM | NCI-H522 > 100 µM | Malme-3M > 100 µM | HL-60 > 100 µM | SNB-75 > 100 µM | SN12C > 100 µM | MOLT-4 > 100 µM | TK-10 > 100 µM

C/C(=N\NS(=O)(=O)c1ccc(C)cc1)c1cc2ccccc2n1C
inactive: SK-MEL-5 > 100 µM | HT-29 76 µM | KM12 > 100 µM | HCC 2998 > 100 µM | UACC-257 > 100 µM | COLO 205 > 100 µM | HCT-116 > 100 µM | SK-MEL-2 > 100 µM | M14 > 100 µM | A549 > 100 µM | NCI-H522 > 100 µM | Malme-3M > 100 µM | HL-60 > 100 µM | SNB-75 59.2 µM | SN12C 24.2 µM | MOLT-4 > 100 µM

Cc1ccc(Cl)c2c(=O)cc(-c3ccccc3)[nH]c12
inactive: SK-MEL-5 37.8 µM | HT-29 50.4 µM | KM12 25.4 µM | UACC-257 58.1 µM | COLO 205 > 100 µM | HCT-116 58.5 µM | SK-MEL-2 47.9 µM | OVCAR-5 71.6 µM | M14 43 µM | A549 46.3 µM | NCI-H522 63.7 µM | Malme-3M 51.6 µM | HL-60 48.5 µM | CAKI-1 84.9 µM | SNB-75 28.8 µM | SN12C 56.4 µM | MOLT-4 32.9 µM | TK-10 70.6 µM

CCC(C)C1NC(=O)C2CCCN2C(=O)CNC(=O)C(C)NC(=O)C(Cc2ccccc2)NC(=O)C(C(C)C)NC1=O (centres undefined) (cyclo(GPIVFA); configuration not given here)
inactive: SK-MEL-5 > 100 µM | HT-29 > 100 µM | KM12 61.2 µM | HCC 2998 > 100 µM | UACC-257 > 100 µM | COLO 205 > 100 µM | HCT-116 > 100 µM | OVCAR-5 > 100 µM | M14 > 100 µM | A549 > 100 µM | Malme-3M > 100 µM | CAKI-1 > 100 µM | SNB-75 > 100 µM | SN12C > 100 µM | MOLT-4 > 100 µM | TK-10 > 100 µM

O=C1C=C(c2[nH]c3ccccc3c2C2=CC(=O)c3ccccc3C2=O)C(=O)c2ccccc21
inactive: SK-MEL-5 31.7 µM | HT-29 > 100 µM | KM12 36.1 µM | COLO 205 > 100 µM | OVCAR-5 > 100 µM | M14 68.7 µM | A549 65.3 µM | HL-60 21.8 µM | SNB-75 26 µM | MOLT-4 15 µM | TK-10 94.4 µM

CCC(=O)CC(=O)CCC(=O)Nc1cc(C)ccc1C
inactive: SK-MEL-5 > 100 µM | HT-29 > 100 µM | KM12 > 100 µM | HCT-116 > 100 µM | SK-MEL-2 > 100 µM | M14 > 100 µM | A549 > 100 µM | NCI-H522 > 100 µM | Malme-3M > 100 µM | HL-60 > 100 µM | SNB-75 > 100 µM | SN12C > 100 µM | MOLT-4 > 100 µM | TK-10 > 100 µM

Cc1cc(Cl)ccc1NC(=O)C1C(=O)N(c2ccc(Cl)cc2C)C(=O)/C1=N\NC(N)=S (centres undefined)
inactive: SK-MEL-5 32.7 µM | HT-29 18.7 µM | KM12 32.9 µM | HCC 2998 20.8 µM | UACC-257 59 µM | COLO 205 32.1 µM | HCT-116 21.9 µM | OVCAR-5 24.3 µM | M14 28.2 µM | A549 35.4 µM | NCI-H522 17.1 µM | Malme-3M 18.7 µM | HL-60 20.1 µM | SN12C 27.4 µM | MOLT-4 19.2 µM | TK-10 47.9 µM

COc1cc(/C=N/N=C(\N)NO)ccc1O
inactive: SK-MEL-5 53 µM | HT-29 67.8 µM | KM12 77.1 µM | UACC-257 > 100 µM | COLO 205 > 100 µM | HCT-116 69.8 µM | SK-MEL-2 69.3 µM | OVCAR-5 18.1 µM | A549 47.3 µM | NCI-H522 46.3 µM | Malme-3M 75.9 µM | CAKI-1 28.6 µM | SN12C > 100 µM | MOLT-4 65.9 µM

C=CCCCN1CCCCC1=S
inactive: SK-MEL-5 > 100 µM | HT-29 > 100 µM | KM12 > 100 µM | HCC 2998 > 100 µM | UACC-257 > 100 µM | COLO 205 > 100 µM | HCT-116 > 100 µM | SK-MEL-2 > 100 µM | OVCAR-5 > 100 µM | M14 > 100 µM | A549 > 100 µM | NCI-H522 > 100 µM | Malme-3M > 100 µM | HL-60 > 100 µM | SNB-75 36.5 µM | SN12C > 100 µM | MOLT-4 > 100 µM | TK-10 > 100 µM

Cn1cnc([N+](=O)[O-])c1Sc1nnc(C(F)(F)F)n1C
inactive: SK-MEL-5 32.6 µM | HT-29 35.7 µM | KM12 > 100 µM | HCC 2998 75.2 µM | UACC-257 17.3 µM | COLO 205 14.6 µM | HCT-116 16.3 µM | SK-MEL-2 21.9 µM | OVCAR-5 > 100 µM | M14 17.4 µM | A549 > 100 µM | NCI-H522 10.4 µM | Malme-3M 15.1 µM | CAKI-1 62.1 µM | SNB-75 84.1 µM | SN12C 40.2 µM | MOLT-4 15.2 µM | TK-10 26.4 µM
